Data on 65 molecules can be found in article PMC6733874, “Zebrafish behavioural profiling identifies GABA and serotonin receptor ligands related to sedation and paradoxical excitation” (Nature Communications, 2019).

Molecules are shown by their SMILES.

The test system of the first test is zebrafish. The format is in vivo. The note with it: average phenoscore at highest scoring treatment.
As to `C[C@]12CC[C@@H](O)C[C@H]1CC[C@@H]1[C@@H]2CC[C@]2(C)[C@@H](C(=O)CO)CC[C@@H]12` [THDOC, tetrahydrodeoxycorticosterone], the phenoscore category entry is reported as “intermediate (intermediate phenoscores (0.51 < x < 0.71))”.

Staying with this test, now noted: co-treatment; in words.
`CCc1[nH]c2ccc(OC)cc2c1CCN(C)C.O=C(O)C(=O)O` [EMDT oxalate]: the “effect on eASRs caused by HTR6 antagonists” value was “did not suppress eASRs”.

Staying with this test, now noted: dutasteride 3.0 μM + progesterone 2.5 μM.
Consider `C[C@]12C=CC(=O)N[C@@H]1CC[C@@H]1[C@@H]2CC[C@]2(C)[C@@H](C(=O)Nc3cc(C(F)(F)F)ccc3C(F)(F)F)CC[C@@H]12` [dutasteride], for which the “effect on progesterone's etomidate-like phenotype” value is recorded as “suppressed”.

The same test, now with this note: larvae; low-volume acoustic stimulus.
Take `CCN(Cc1ccccc1)C(=O)Cn1c(=O)n(C)c2cnc(-c3ccccc3)nc21` [AC 5216]: the “enhanced acoustic startle response (eASR) phenotype, in words” value (“enhanced acoustic startle response” for short) is listed as “caused eASRs in vivo”.
For `O=C(Nc1c(-c2cccs2)nc2ccccn12)c1ccc(Cl)cc1` [DS2], the “enhanced acoustic startle response” value is on record as “did not cause eASRs”.
The same measure, in the same setting: as for `Cc1cccc(C#Cc2ccccc2)n1` [MPEP], the entry is “reproducibly caused eASRs”.
The same measure, in the same setting: as for `CCC(C)N(C)C(=O)c1cc2ccccc2c(-c2ccccc2Cl)n1` (stereo not drawn) [PK 11195], the entry is “caused eASRs in vivo”.
The same measure, in the same setting: the result for `Oc1noc2c1CCNC2` [THIP, gaboxadol] reads “did not cause eASRs”.
As for `COc1ccccc1N1CCN(C(=O)COc2ccc(Cl)cc2Br)CC1` [compound 5801496], the “enhanced acoustic startle response” value is recorded as “did not cause eASRs in vivo”.
The same measure, in the same setting: as for `Fc1ccc2c(CCNCc3cccc(OCC(F)(F)C(F)F)c3)c[nH]c2c1` [idalopirdine], the entry is “reproducibly caused eASRs in vivo”; as for `FC(F)OC(Cl)C(F)(F)F` (stereo not drawn) [isoflurane], “not all anesthetics caused eASR behaviors”.
Still for that read-out and setting: the result for `O=C(c1ccccn1)c1cnn2c(-c3ccncc3)ccnc12` [ocinaplon] reads “produced a behavioral profile that resembled the negative”; that for `CCOC(=O)c1cccc(N)c1` [tricaine], “not all anesthetics caused eASR behaviors”.

The same test, now with this note: zebrafish, in vivo.
Consider `CCCN(CCC)C1CCc2cccc(O)c2C1` (stereo not drawn) [8-HYDROXY-DPAT], for which the Phenoscore worked out at 0.49.
`NCCc1c[nH]c2c(O)cc(O)cc12` [57-DIHYDROXYTRYPTAMINE] gave a Phenoscore of 0.05.
On the same count and under the same terms, as for `CC(N)Cc1c[nH]c2ccc(OCc3cccs3)cc12` (stereo not drawn) [BW 723C86], the figure is 0.1; as for `Cc1c(OCc2cccc(-c3ccc(C(=O)O)cc3)c2)cc2c(c1C)C(=O)C(C1CCCC1)C2` (stereo not drawn) [Biphenylindanone A], 0.11; as for `CCc1c(C(=O)OC)ncc2[nH]c3cc(OC)c(OC)cc3c12` [DMCM], 0.54.
Same read-out and setting: the result for `COc1cc(CC(C)N)c(OC)cc1I.Cl` (stereo not drawn) [DOI HYDROCHLORIDE] reads 0.1; that for `Cc1[nH]c2ccc(Cl)cc2c1C1=CCNCC1.Cl` [EMD 386088 HYDROCHLORIDE], 0.15; that for `CN1CC(=O)NC1=NC(=O)Nc1cccc(Cl)c1` [Fenobam], 0.3.
For the molecule `NCCCC(=O)O` [GABA], the Phenoscore was 0.21.
As to `CN(C)CCCc1cc(C(=O)Nc2ccc(-c3ccncc3)cc2)ccc1O.Cl.Cl` [GR 55562 DIHYDROCHLORIDE], the Phenoscore is listed as 0.24.
Take `O=C(Nc1cnc(Cl)nc1)c1ccc(F)c(F)c1` [ICA-069673]: the “eASR magnitudes in animals treated with M-current ligands” value (“eASR magnitudes in animals treated” for short) is recorded as “significantly decreased”.
`CCOC(=O)c1ncn2c1[C@@H]1CCCN1C(=O)c1cc(OC)ccc1-2` [L-655,708] returned a Phenoscore of 0.51.
Molecule `NC(CCP(=O)(O)O)C(=O)O` [L-AP4] yielded a Phenoscore of 0.1.
The molecule `CSc1ccc2c(c1)C(N1CCN(C)CC1)Cc1ccccc1S2` (stereo not drawn) [METHIOTHEPIN] showed a Phenoscore of 0.33.
`Cc1cccc(C#Cc2ccccc2)n1` [MPEP] showed a Phenoscore of 0.73.
Still for that read-out and setting: the result for `COc1ccc2c(c1)c(CCN(C)C)cn2S(=O)(=O)c1ccccc1.O=C(O)C(=O)O` [MS 245 OXALATE] reads 0.09; that for `Cc1nccn1CC1CCc2c(c3ccccc3n2C)C1=O.Cl` (stereo not drawn) [Ondansetron Hydrochloride], 0.13; that for `O=C(O)/C=C\C(=O)O.c1ccc2nc(N3CCNCC3)ccc2c1` [Quipazine maleate salt], 0.16.
On the same count and under the same terms, as for `NC[C@H](CC(=O)O)c1ccc(Cl)cc1` [R-Baclofen], the figure is 0.26.
Still for that read-out and setting: the result for `CNc1cc(NS(=O)(=O)c2ccc(N)cc2)nc(NC)n1` [Ro 04-6790] reads 0.11; that for `COc1ccc(S(=O)(=O)Nc2cc(Cl)cc(Cl)c2OC)cc1N1CCNCC1.Cl` [SB 399885 hydrochloride], 0.16; that for `COc1ccc(NC(=O)c2ccc(-c3ccc(-c4noc(C)n4)cc3C)cc2)cc1OCCN(C)C` [SB-216641], 0.11.
For the molecule `O=C(N/N=C/c1ccccc1O)c1ccccc1O` [SCS], the Phenoscore amounted to 0.04.
On the same count and under the same terms, the result for `CCN(CC)CCOC(=O)c1cc(Cl)c(N)cc1OC` [SDZ-205557] reads 0.07.
On the same count and under the same terms, as for `Br.COc1ccc(-c2ccc(=N)n(CCCC(=O)O)n2)cc1` [SR-95531], the figure is 0.21.
Same read-out and setting: as for `Cc1[nH]c2ccc(Cl)cc2c1CCN(C)C.O=C(O)C(=O)O` [ST 1936 OXALATE], the figure is 0.09; as for `NC/C=C/C(=O)O` [TACA], 0.07.
Molecule `CC1(C)CC(=O)c2c(SCCO)sc(-c3nccs3)c2C1` [TB 21007] had a Phenoscore of 0.12.
Regarding `COc1cc(Br)c(OC)c2c1[C@H](CN)C2` [TCB-2], the Phenoscore is reported as 0.1.
Still for that read-out and setting: the result for `N[C@@H](Cn1ccc(=O)n(Cc2ccccc2C(=O)O)c1=O)C(=O)O` [UBP 302] reads 0.17.
`O=C([O-])[C@H]1CCCC[C@H]1C(=O)Nc1cc(Cl)cc(Cl)c1.[Na+]` [VU 0155041 Na Salt] showed a Phenoscore of 0.11.
Same read-out and setting: as for `CN(C)CCn1cc(S(=O)(=O)c2cccc(F)c2)c2cccnc21` [WAY 208466], the figure is 0.21.
As to `O=C1c2ccccc2C(Cc2ccncc2)(Cc2ccncc2)c2ccccc21` [XE-991], the “eASR magnitudes in animals treated” value is given as “significantly increased”.
Turning to `CN(C)C/C=C(\c1ccc(Br)cc1)c1cccnc1.Cl.Cl.O` [Zimelidine dihydrochloride monohydrate], the Phenoscore was 0.16.
In turn, `CC(N)Cc1c[nH]c2ccc(O)cc12` (stereo not drawn) [alpha-METHYLSEROTONIN] registered a Phenoscore of 0.18.
On the same count and under the same terms, as for `CN1CCc2cc3c(cc2[C@H]1[C@@H]1OC(=O)c2c1ccc1c2OCO1)OCO3` [bicuculline (+)], the figure is 0.23; as for `CN1CCc2cc3c(cc2[C@H]1[C@@H]1OC(=O)c2c1ccc1c2OCO1)OCO3` [bicuculline (-)], 0.05; as for `COc1ccccc1N1CCN(C(=O)c2ccc(C(=O)c3c(C)cc(C)cc3C)cc2)CC1` [compound 5352629], 0.48.
As to `CCOC(=O)c1c(C)n(Cc2ccco2)c2ccc(OC)cc12` [compound 5943451], the Phenoscore was found to be 0.37.
Still for that read-out and setting: as for `O=C(Nc1ccc(Cl)c(Cl)c1)c1ccc(Cl)cc1Cl` [compound 7136301], the figure is 0.42.
Take `Cc1cccc([C@H](C)c2cnc[nH]2)c1C` [dexmedetomidine]: the “enhanced acoustic startle response” value is “not all anesthetics caused eASR behaviors”.
`CCOC(=O)Nc1ccc(NCc2ccc(F)cc2)nc1N` [flupirtine]: the “eASR magnitudes in animals treated” value was “significantly decreased”.
Same read-out and setting: as for `O=C1N(c2ccccc2)c2ccccc2C1(Cc1ccncc1)Cc1ccncc1` [linopirdine], the entry is “significantly increased”.
Same read-out and setting: the result for `O=C1CCCN1CC#CCN1CCCC1` [oxotremorine] reads “significantly increased”.
The molecule `CCOC(=O)c1cc2c(cn1)[nH]c1ccccc12` [β-CCE] yielded a Phenoscore of 0.37.

Another test relates to human GABAARs (α1β2 and α1β2γ2). The class given is cell-based. As to conditions: compound at 20 uM then 5 uM GABA; DMSO = 1. From the text:
To determine if these compounds targeted human GABAARs, we tested them in a fluorescent imaging plate reader (FLIPR) assay on HEK293 cells transfected with α1β2 and α1β2γ2 human GABAAR subtypes. […]. […] While some of the compounds appeared to function in this assay as negative allosteric modulators (NAMs), reductions in fluorescence were likely due to toxicity-induced cell loss (Fig. 2f, Supplementary Table 5).
We used the FLIPR system (Molecular Devices) to quantify GABA-evoked activity of human GABAARs. We chose a membrane potential dye (Molecular Devices) to measure changes in membrane potentials and stably transfected HEK293 cells that expressed α1, β2 and γ2. Since we observed an increase in GABA-evoked responses when transfected with γ2 transiently, we describe the cells as having a low level of γ-subunit expression, indicating heterogeneity of GABAAR compositions in the cell (α1β2 or α1β2γ2). To assay for direct agonists, fluorescence was subtracted pre- and post compound addition. To assay for PAMs, cells were treated with compound at 20 uM and then with 5 uM GABA.
Take `CCOC(=O)c1c(N)sc2ccccc12` [compound 5142031]: the “Ave Norm FLIPR Score” value is given as 5.237.
Still for that read-out and setting: the result for `Clc1ccc(CSc2nc3ccccc3[nH]2)cc1` [compound 5551268] reads -1.463; that for `CC(=O)c1c(C)nc2n(Cc3ccccc3)c3ccccc3n12` [compound 5573728], 27.62.
Still for that read-out and setting: as for `O=C(Nc1c(C(=O)Nc2ccc(Cl)cc2)cnn1-c1ccccc1)c1ccco1` [compound 5583877], the figure is 36.71.
On the same count and under the same terms, as for `O=C(Nc1c(C(=O)Nc2ccc(Cl)cc2)cnn1-c1ccccc1)c1ccccc1F` [compound 5587256], the figure is -26.37; as for `CCC(=O)c1c(C)nc2n(Cc3ccccc3)c3ccccc3n12` [compound 5649824], 41.41; as for `COC(=O)c1sc(NC(=O)C2CCCO2)c(C(=O)OC)c1C` (stereo not drawn) [compound 5690842], 12.09.
Regarding `CCOC(=O)Nc1sc(C)c(CC)c1C(=O)OCC` [compound 5695025], the “Ave Norm FLIPR Score” value came out at 32.27.

Staying with this test, now noted: compound at 20 uM then 5 uM GABA; Positive/Negative.
`CCOC(=O)c1c(N)sc2ccccc12` [compound 5142031]: the “FLIPR Results” value was “Positive”.
For `CC(=O)c1c(C)nc2n(Cc3ccccc3)c3ccccc3n12` [compound 5573728], the “FLIPR Results” value is given as “Positive”.
On the same count and under the same terms, the result for `O=C(Nc1c(C(=O)Nc2ccc(Cl)cc2)cnn1-c1ccccc1)c1ccco1` [compound 5583877] reads “Positive”; that for `CCC(=O)c1c(C)nc2n(Cc3ccccc3)c3ccccc3n12` [compound 5649824], “Positive”; that for `COC(=O)c1sc(NC(=O)C2CCCO2)c(C(=O)OC)c1C` (stereo not drawn) [compound 5690842], “Positive”.
As for `CCOC(=O)Nc1sc(C)c(CC)c1C(=O)OCC` [compound 5695025], the “FLIPR Results” value is “Positive”.
